Where two headings read alike, the source gives them in different places. Positions of bridges follow the written chain, without caps; N, C: chain ends. Residues, ends and D or L forms follow the SMILES beside them.
Legend:
[1] = target: SA AgrC-II (Staphylococcus aureus, UniProt O33587); test: β-Lactamase assay, reporter strain RN10829 (P2-agrA:P3-blaZ) with pagrC-II; type: cell-based; settings: for IC50, SA AgrC-II, b-lactamase assay: 100 nM cognate AIP, ± SEM, -b = no inhibition recorded at the highest AIP concentration tested, -a = only partial inhibition observed, this study (curves in Fig. S20)
Sequence of SA AgrC-II (O33587 entry or part of it): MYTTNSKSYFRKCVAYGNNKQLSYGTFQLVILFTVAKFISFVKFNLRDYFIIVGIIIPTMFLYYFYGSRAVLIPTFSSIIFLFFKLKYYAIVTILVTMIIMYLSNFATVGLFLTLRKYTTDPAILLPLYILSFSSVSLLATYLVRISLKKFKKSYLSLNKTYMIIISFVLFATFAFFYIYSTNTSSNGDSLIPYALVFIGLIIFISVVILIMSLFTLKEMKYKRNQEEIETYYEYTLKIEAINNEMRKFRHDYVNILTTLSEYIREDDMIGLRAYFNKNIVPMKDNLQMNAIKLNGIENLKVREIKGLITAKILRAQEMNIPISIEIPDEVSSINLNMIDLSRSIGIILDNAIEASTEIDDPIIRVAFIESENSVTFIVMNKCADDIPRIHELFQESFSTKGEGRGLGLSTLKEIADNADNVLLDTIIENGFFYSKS
From the text: (§1) The β-lactamase reporter strain RN10829 (P2-agrA:P3-blaZ) ([62]), with pagrC-I ([63]), pagrC-II, pagrC-III, or pagrC-IV ([11]), substituting the native agr locus with a chromosomal integration of P2-agrA and P3-blaZ and a plasmid from which a wild-type variant of the corresponding AgrC is expressed, was used to assess inhibition and activation of the AgrC receptor via β-lactamase activity in response to varying concentrations of the QS modulating peptides. Overnight cultures of the reporter strains in TSB medium were diluted 1:250 in fresh TSB medium and grown to OD600 = 0.35–0.40 (early exponential phase) at 37°C. Peptide solutions (10 μL) in 1:10 serial dilutions from DMSO stock solutions (1 mM) in TSB medium (final concentrations = 10 μM–10 pM) were added to each well of a clear 96-well plate as well as solutions (10 μL) of cognate AIP (final concentration = 100 nM) in TSB medium followed by 80 μL of bacterial cells. Control wells for 100% β-lactamase activity were wells replacing peptide solution with TSB media (10 μL), and control wells for 0% β-lactamase activity were wells replacing both peptide and cognate AIP solutions with TSB medium (20 μL). The 96-well plates were incubated at 37°C shaking at 200 rpm for 1 h and immediately frozen down at −80°C to minimize growth during nitrocefin treatment. Next, the 96-well plates were thawed, and OD600 values were determined using a plate reader followed by the addition of 50 μL of nitrocefin solution to the wells (final concentration = 33.3 μg/mL). β-Lactamase activity was monitored at OD486 every 20 s for 10 min at 37°C using a plate-reader. Linear nitrocefin conversion rates were plotted to obtain IC50 values by non-linear regression with variable slope using GraphPad Prism 10.4 software. Assays were performed at least as duplicate determinations in biological triplicate.

[2] = target: SA AgrC-III (Staphylococcus aureus, UniProt O33590); test: β-Lactamase assay, reporter strain RN10829 (P2-agrA:P3-blaZ) with pagrC-III; type: cell-based; settings: for IC50, SA AgrC-III, b-lactamase assay: 100 nM cognate AIP, ± SEM, -b = no inhibition recorded at the highest AIP concentration tested, -a = only partial inhibition observed, this study (curves in Fig. S21)
Sequence of SA AgrC-III (O33590 entry or part of it): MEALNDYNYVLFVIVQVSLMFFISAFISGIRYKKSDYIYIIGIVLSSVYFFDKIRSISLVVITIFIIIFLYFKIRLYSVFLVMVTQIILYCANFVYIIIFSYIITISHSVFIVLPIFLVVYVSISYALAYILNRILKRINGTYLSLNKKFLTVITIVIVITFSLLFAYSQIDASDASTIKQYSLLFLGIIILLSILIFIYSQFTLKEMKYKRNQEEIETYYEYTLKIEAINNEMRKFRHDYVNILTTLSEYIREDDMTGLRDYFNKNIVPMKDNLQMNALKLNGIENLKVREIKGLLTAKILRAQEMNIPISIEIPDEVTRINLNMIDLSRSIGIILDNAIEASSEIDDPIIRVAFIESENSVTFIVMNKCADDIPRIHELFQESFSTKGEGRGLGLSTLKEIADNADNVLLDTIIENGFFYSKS
From the text: as §1

[3] = target: SA AgrC-IV (Staphylococcus aureus, UniProt Q309Z2); test: β-Lactamase assay, reporter strain RN10829 (P2-agrA:P3-blaZ) with pagrC-IV; type: cell-based; settings: for IC50, SA AgrC-IV, b-lactamase assay: 100 nM cognate AIP, ± SEM, -b = no inhibition recorded at the highest AIP concentration tested, -a = only partial inhibition observed, this study (curves in Fig. S22)
Sequence of SA AgrC-IV (Q309Z2 entry or part of it): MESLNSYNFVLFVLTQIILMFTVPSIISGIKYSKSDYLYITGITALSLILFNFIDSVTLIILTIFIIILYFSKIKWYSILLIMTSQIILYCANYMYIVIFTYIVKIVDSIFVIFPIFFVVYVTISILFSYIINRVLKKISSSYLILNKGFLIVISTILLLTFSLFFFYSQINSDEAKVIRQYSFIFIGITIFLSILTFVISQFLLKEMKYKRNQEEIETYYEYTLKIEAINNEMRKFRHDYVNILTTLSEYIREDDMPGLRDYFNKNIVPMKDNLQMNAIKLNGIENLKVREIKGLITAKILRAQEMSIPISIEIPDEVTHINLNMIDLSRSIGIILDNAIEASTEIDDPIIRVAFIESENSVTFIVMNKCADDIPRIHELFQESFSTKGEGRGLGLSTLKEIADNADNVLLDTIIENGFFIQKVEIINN
From the text: as §1

[4] = tested on: S. aureus (SA) agr-I; settings: fluorescence, cited from earlier work
[5] = tested on: S. aureus (SA) agr-II; settings: fluorescence, cited from earlier work
[6] = tested on: S. aureus (SA) agr-III; settings: fluorescence, cited from earlier work
[7] = tested on: S. aureus (SA) agr-IV; settings: fluorescence, cited from earlier work
[8] = tested on: S. epidermidis (SE) agr-I; settings: fluorescence, cited from earlier work
[9] = tested on: S. epidermidis (SE) agr-II; settings: fluorescence, cited from earlier work
[10] = tested on: S. epidermidis (SE) agr-III; settings: fluorescence, cited from earlier work
[11] = target: S. aureus agr-II (Staphylococcus aureus, UniProt O33587); test: cell-based
Sequence of S. aureus agr-II (O33587 entry or part of it): as the sequence (O33587 entry or part of it) above
Procedure: (§2) Peptides were evaluated for the ability to interfere with agr-mediated quorum sensing in S. aureus (AH1677, AH430, AH1747, and AH1872 for agr-I–IV, respectively) ([40]) using reporter strains expressing yellow fluorescent protein (YFP) upon agr activation. Interference with agr-mediated quorum sensing in S. epidermidis (AH3408, AH3623, and AH3409 for agr-I–III, respectively) ([45]), and S. lugdunensis (AH4031 for agr-I) ([37]) was evaluated using reporter strains expressing superfolder green fluorescent protein (sGFP) upon agr activation. Overnight cultures of the reporter strains were grown in TSB medium containing chloramphenicol (CAM, 10 μg/mL for S. aureus) or erythromycin (ERM, 10 μg/mL of S. epidermidis and S. lugdunensis) and diluted 1:100 in fresh TSB medium containing the same antibiotic. Assays were performed in sterile black 96-well plates with a clear bottom. […] DMSO stock solutions of peptides (1 mM) were diluted in TSB media and added (15 μL) in technical triplicate to the 96-well plate, followed by diluted bacterial overnight cultures (135 μL). Control wells for 100% agr activity were wells replacing the peptide solution with TSB medium (15 μL). […] Wells containing 150 μL TSB medium were used to measure background fluorescence. The 96-well plates were incubated in a humidified incubator at 37°C shaking at 1,000 rpm for 22–24 h and fluorescence (for GFP: excitation 479 nm, emission 520 nm; for YFP: excitation 500 nm, emission 541 nm; automatic gain), and OD600 values were subsequently measured using a plate reader. Background fluorescence was subtracted from all wells and further normalized to the corresponding OD600 value of the respective wells. The average fluorescence of control wells was used as a relative measure for 100% activation of the agr-circuit, and bar graphs were generated using GraphPad Prism 10.4 software. All assays were performed in at least a biological duplicate.
(§3) Overnight cultures of the reporter strains were grown in TSB medium containing chloramphenicol (CAM, 10 μg/mL for S. aureus) or erythromycin (ERM, 10 μg/mL of S. epidermidis and S. lugdunensis) and diluted 1:100 in fresh TSB medium containing the same antibiotic. Assays were performed in sterile black 96-well plates with clear bottoms. Peptide solutions (15 μL) in 1:5 serial dilutions from DMSO stock solutions (1 mM) in TSB medium were added to the 96-well plate in technical duplicate followed by diluted bacterial overnight cultures (135 μL). Control wells for 100% agr activity were wells replacing the peptide solution with TSB medium (15 μL). Wells containing 150 μL TSB medium were used to measure background fluorescence. The 96-well plates were incubated in a humidified incubator at 37°C shaking at 1,000 rpm for 22–24 h and fluorescence (for GFP: excitation 479 nm, emission 520 nm; for YFP: excitation 500 nm, emission 541 nm; automatic gain), and OD600 values were subsequently measured using a plate reader. Background fluorescence was subtracted from all wells and further normalized to the corresponding OD600 value of the respective wells. The average fluorescence of control wells was used as a relative measure for 100% activation of the agr-circuit. Relative agr activity was plotted to obtain IC50 values by non-linear regression with variable slope using GraphPad Prism 10.4 software. All assays were performed in biological triplicate.

[12] = target: S. aureus agr-IV (Staphylococcus aureus, UniProt Q309Z2); test: cell-based; type: cell-based; settings: fluorescent reporter strain; peptides tested at 1000, 50, 2.5, 0.125 nM or in dose-response
Sequence of S. aureus agr-IV (Q309Z2 entry or part of it): as the sequence (Q309Z2 entry or part of it) above
Procedure: as §2, §3

[13] = target: S. epidermidis agr-III (Staphylococcus epidermidis, UniProt Q8VSX2); test: cell-based; type: cell-based
Sequence of S. epidermidis agr-III (Q8VSX2 entry or part of it): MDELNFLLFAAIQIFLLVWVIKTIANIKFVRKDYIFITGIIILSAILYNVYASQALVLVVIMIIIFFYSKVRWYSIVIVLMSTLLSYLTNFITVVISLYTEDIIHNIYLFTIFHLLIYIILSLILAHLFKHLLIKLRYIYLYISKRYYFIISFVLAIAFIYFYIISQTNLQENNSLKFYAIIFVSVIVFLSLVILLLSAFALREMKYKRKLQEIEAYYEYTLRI
Procedure: as §2, §3

[14] = target: SA AgrC-I (Staphylococcus aureus, UniProt O07911); test: β-Lactamase assay, reporter strain RN10829 (P2-agrA:P3-blaZ) with pagrC-I; type: cell-based
Sequence of SA AgrC-I (O07911 entry or part of it): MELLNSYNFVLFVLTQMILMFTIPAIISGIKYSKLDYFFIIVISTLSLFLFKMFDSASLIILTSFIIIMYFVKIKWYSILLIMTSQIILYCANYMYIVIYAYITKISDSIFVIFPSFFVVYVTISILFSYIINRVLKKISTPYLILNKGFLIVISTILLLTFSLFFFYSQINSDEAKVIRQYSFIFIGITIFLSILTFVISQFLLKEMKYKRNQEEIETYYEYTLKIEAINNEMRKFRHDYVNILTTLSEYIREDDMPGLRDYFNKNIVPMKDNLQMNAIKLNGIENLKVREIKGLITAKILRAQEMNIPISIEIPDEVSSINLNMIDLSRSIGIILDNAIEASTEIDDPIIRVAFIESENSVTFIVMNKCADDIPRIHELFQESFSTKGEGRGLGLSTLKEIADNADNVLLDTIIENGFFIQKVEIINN
From the text: as §1, with “Control wells for 100% β-lactamase activity were wells replacing peptide solution with TSB media (10 μL), and control wells for 0% β-lactamase activity were wells replacing both peptide and cognate AIP solutions with TSB medium (20 μL).” left out

Row | Compound | IC50, SA AgrC-II, b-lactamase assay [1] | IC50, SA AgrC-III, b-lactamase assay [2] | IC50, SA AgrC-IV, b-lactamase assay [3] | IC50 [2] | IC50 [14] | IC50 [1] | IC50 [3] | other results
1 | S. epidermidis AIP-II [compound 6] | -b | -b | -b |  |  |  |  | inhibition at 100 nM, SA agr-I ([4]; at 100 nM, ref (11)): no inhibition; inhibition at 100 nM, SA agr-II ([5]; at 100 nM, ref (11)): no inhibition; inhibition at 100 nM, SA agr-III ([6]; at 100 nM, ref (11)): no inhibition; inhibition at 100 nM, SA agr-IV ([7]; at 100 nM, ref (11)): no inhibition; effect from supernatant (% inhibition, activation or no effect), SE agr-I ([8]; from supernatant, ref (18)): ~ 90%; IC50 ([8]; ref (11)): 9.64 nM; effect at 10 µM, SE agr-II ([9]; at 10 µM, ref (11)): activation; effect from supernatant (% inhibition, activation or no effect), SE agr-II ([9]; from supernatant, ref (18)): activation; effect at 10 µM, SE agr-III ([10]; at 10 µM, ref (11)): no effect; effect from supernatant (% inhibition, activation or no effect), SE agr-III ([10]; from supernatant, ref (18)): no effect
2 | CC[C@H](C)[C@H](NC(=O)[C@@H](N)CC(=O)O)C(=O)N[C@H]1CSC(=O)[C@H](Cc2ccccc2)NC(=O)[C@H](Cc2ccc(O)cc2)NC(=O)[C@H](C)NC(=O)[C@H](CC(N)=O)NC1=O [compound 8, S. lugdunensis AIP-I] (H-DICNAYF; thioester 3-C; N-terminus assumed) | -b |  | -b | > 1000 nM |  |  |  | IC50 [11]: 234 nM; QS interaction in words (inhibition / activation), S. aureus agr-IV [12]: no effect at 1000 nM; IC50 [13]: 66.8 ± 2.9 nM; IC50 ([5]; ref (10)): 419 nM; IC50 ([6]; ref (10)): 36.6 nM; IC50 ([7]; ref (10)): > 1000 nM
3 | C[C@@H](O)[C@H](NC(=O)[C@H](CO)NC(=O)[C@@H](N)Cc1ccc(O)cc1)C(=O)N[C@H]1CSC(=O)[C@H](Cc2ccccc2)NC(=O)[C@H](Cc2ccc(O)cc2)NC(=O)[C@H](Cc2ccc(O)cc2)NC(=O)[C@H](CO)NC1=O [compound 20, S. caprae AIP-I] (H-YSTCSYYF; thioester 4-C) |  | -a |  |  | 5.7 ± 0.8 nM | 252 ± 44 nM | 199 ± 19 nM | IC50 ([4]; ref (15)): 0.6 ± 0.02 nM; IC50 ([5]; ref (15)): 0.26 ± 0.08 nM; IC50 ([6]; ref (15)): 0.2 nM; IC50 ([7]; ref (15)): 8.98 ± 0.32 nM
4 | C[C@H](N)C(=O)N[C@@H](CC(N)=O)C(=O)N1CCC[C@H]1C(=O)N[C@H]1CSC(=O)[C@H](Cc2ccccc2)NC(=O)[C@H](Cc2ccc(O)cc2)NC(=O)CNC(=O)[C@H](C)NC1=O [compound 21, S. pasteuri AIP-I] (H-ANPCAGYF; thioester 4-C) | -b |  |  | 191 ± 18 nM | 155 ± 34 nM |  | > 1000 nM | 
5 | CC(C)C[C@H](NC(=O)[C@H](C)NC(=O)CNC(=O)[C@H](C)NC(=O)[C@@H](NC(=O)[C@H](C)N)[C@@H](C)O)C(=O)N1CCC[C@H]1C(=O)N[C@H]1CSC(=O)[C@H](Cc2ccccc2)NC(=O)[C@H](Cc2ccccc2)NC(=O)CNC(=O)CNC1=O [compound 23, S. succinus AIP-I] (H-ATAGALPCGGFF; thioester 8-C) |  |  |  | > 1000 nM | 117 ± 26 nM | 854 ± 65 nM | > 1000 nM | 
6 | CC[C@H](C)[C@H](NC(=O)[C@@H](N)[C@@H](C)O)C(=O)N[C@@H](CO)C(=O)N[C@@H](CO)C(=O)N[C@H](C(=O)N[C@@H](CCCCN)C(=O)N1CCC[C@H]1C(=O)N[C@H]1CSC(=O)[C@H](C(C)C)NC(=O)[C@H](Cc2ccccc2)NC(=O)CNC(=O)[C@H]([C@@H](C)O)NC1=O)C(C)C [compound 18, S. cohnii AIP-I] (H-TISSVKPCTGFV; thioester 8-C) | -b | -b | -b |  | > 10000 nM |  |  | 

From PMC12345137 (mBio, 2025)
